Tests used:
[1] = test system: E. coli; assay: MIC50 and MIC90, panel of Gram negative bacterial strains (CLSI broth microdilution); format: cell-based; set-up: key to E. coli MIC50 / E. coli MIC90: A: a measured MIC value equal to that of polymyxin B; a measured MIC value less than the corresponding MIC value measured for polymyxin B; a measured MIC value greater than the corresponding MIC value measured for polymyxin B
Procedure: (§1) The potency and spectrum of Compound 5 was studied using a panel of Gram negative bacterial strains.
(§2) MIC testing can be performed according to Clinical and Laboratory Standards Institute (CLSI) M7-A7 (2006) broth microdilution methods. Unless otherwise indicated, MIC values are provided in units of micrograms per milliliter.
(§3) One day prior to testing, individual colonies were isolated by streaking onto rich, non-selective Tryptic Soy agar with 5% lysed sheeps blood (TSAB) with incubation at 35-37° C. for 18-24 hours.
(§4) Cultures were prepared by touching 3-5 colonies into 3 mL of cation-adjusted Mueller Hinton Broth (caMHB) in a 14-mL tube (caMHB was prepared and sterilized according to manufacturer's specifications).
(§5) OD600 of growing cultures was measured and adjusted to approximately 10^5 colony forming units per mL (CFU/mL) in caMHB for MIC inoculation (approximately OD600 0.001).
(§6) Diluted cultures were used to inoculate 50 μL per well in broth microdilution assays (final volume 100 μl per well; compounds were prepared in two-fold dilutions).
(§7) Plates were incubated 16-20 hours at 37° C., with shaking at 200 rpm.
(§8) OD600 was determined for all wells. Growth was defined as OD600>0.1. MICs were defined as the lowest concentration producing no visible turbidity (OD600<0.1).

[2] = test system: A. baum; assay: as above; format: cell-based, A. baumanni; set-up: key to A. baum MIC50 / A. baum MIC90: A: a measured MIC value equal to that of polymyxin B; a measured MIC value less than the corresponding MIC value measured for polymyxin B; a measured MIC value greater than the corresponding MIC value measured for polymyxin B
Procedure: as §1, §2, §3, §4, §5, §6, §7, §8

[3] = test system: P. aeruginosa 44; assay: Neutropenic mouse lung infection model; format: in vivo
Procedure: Compound of Formula (Ia) was tested in a murine thigh model. For the thigh model, female CD-1 mice were rendered neutropenic by IP injection on days −4 and −1 with 150 and 100 mg/kg cyclophosphamide, respectively. On day 0 mice were infected with 1×10^7 colony-forming units (cfu) of A. baumannii 1570 in one thigh muscle, and then administered compound SC in a dose ranging from 2 to 12 mg/kg at 1 and 6 hours post-infection.
The mouse lung model was run in the same manner as the thigh infection model, except that mice were infected IN with 1×10^7 cfu of P. aeruginosa 44 on day 0. Doses administered in the lung study ranged from 8 to 20 mg/kg. The ED−3log10 was based on cfu determination from the lung tissue 24 hours post-infection.

[4] = class relative to polymyxin B, some strains multi-drug resistant

Question: For `CC(C)C[C@H]1NC(=O)[C@H](CCN)NC(=O)[C@@H](NC(=O)[C@@H](CCN)NC(=O)[C@@H](NC(=O)[C@H](CCN)NC(=O)[C@H]2C[C@@H]2c2ccccc2)C(C)O)CCNC(=O)[C@H](C(C)O)NC(=O)[C@H](CCN)NC(=O)[C@H](CCN)NC(=O)[C@H](C(C)O)NC1=O` (single isomer, unassigned) [Compound 5], which “activity against E. coli isolates” value [1] is on record?
Answer: The value was “active”.

Question: What about the “E. coli MIC50” value [1, 4] of the same molecule?
Answer: The value was “C”.

Question: What about the “E. coli MIC90” value [1, 4] of the same molecule?
Answer: Its value is “A”.

Question: What about the “activity against A. baumanni isolates” value [2] of the same molecule?
Answer: Its value is “active”.

Question: What about the “A. baum MIC50” value [2, 4] of the same molecule?
Answer: The value was “C”.

Question: And the “A. baum MIC90” value [2, 4]?
Answer: The value was “C”.

Question: And the “Lungs cleared within one log10 of limit of detection” value ([3]; mouse lung model, 8 through 20 mg/kg dose levels)?
Answer: The value was “Lungs cleared within one log10 of limit of detection”.

Question: And the “ED−3log10” value ([3]; neutropenic mouse lung, P. aeruginosa 44, SC, BID×1d, cfu 24 hours post-infection, experiment with Formula (Ia))?
Answer: The value was 6.35 mg/kg.

Reference: US8415307B1, “Antibiotic compositions for the treatment of gram negative infections” (priority 2010, dated 2013)
